Measured values published in PubChem BioAssay AID256 (DTP/NCI, 2004).
Inconclusive results and toxic doses are left out. How the source made its calls: active means survival T/C of 150% or more; inactive means T/C below 125% in these data.

Test system: CD2F1 mice, L1210 leukemia ip, survival T/C
Assay: NCI In Vivo Anticancer Drug Screen. Data for tumor model L1210 Leukemia (intraperitoneal) in CD2F1 (CDF1) mice
Settings: endpoint: mean survival time, higher = longer survival
Method in brief: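 Read-out first: treated-group measurement over vehicle-control measurement, expressed as a ratio. Animals bore a transplanted tumor line and were dosed with compound or vehicle.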

[1] = dose: 50.0 mg/kg/injection, schedule: Q01DX009 (ip), vehicle: saline
[2] = dose: 100.0 mg/kg/injection, schedule: Q01DX009 (ip), vehicle: saline with Tween-80
[3] = dose: 200.0 mg/kg/injection, schedule: Q01DX009 (ip), vehicle: saline with Tween-80
[4] = dose: 400.0 mg/kg/injection, schedule: Q01DX009 (ip), vehicle: saline with Tween-80
[5] = dose: 75.0 mg/kg/injection, schedule: Q01DX001 (ip), vehicle: saline

Measured: T/C

NC(CSC1(c2ccc(Cl)cc2)c2ccccc2-c2ccccc21)C(=O)O (stereo unspecified)
inactive: dose: 25.0 mg/kg/injection, schedule: Q01DX009 (ip), vehicle: saline 100 % of control | [1] 96 % of control | dose: 100.0 mg/kg/injection, schedule: Q01DX009 (ip), vehicle: saline 96 % of control

O=C(O)C(=O)O.[NH-]C(c1ccccc1)C([NH-])c1ccccc1.[Pt+2] (stereo unspecified)
inactive: dose: 6.25 mg/kg/injection, schedule: Q04DX003 (ip), vehicle: saline with Tween-80 118 % of control | dose: 12.5 mg/kg/injection, schedule: Q04DX003 (ip), vehicle: saline with Tween-80 124 % of control

O=C(O)C1C2C=CC(C2)C1C(=O)Nc1ccccc1 (stereo unspecified)
inactive: [2] 97 % of control | [3] 97 % of control | [4] 96 % of control

O=C(OCC1OC(n2cc[n+]([O-])nc2=O)C(OC(=O)c2ccccc2)C1OC(=O)c1ccccc1)c1ccccc1 (stereo unspecified)
inactive: dose: 25.0 mg/kg/injection, schedule: Q01DX005 (ip), vehicle: other 90 % of control | dose: 50.0 mg/kg/injection, schedule: Q01DX005 (ip), vehicle: other 101 % of control | dose: 100.0 mg/kg/injection, schedule: Q01DX005 (ip), vehicle: other 104 % of control | dose: 200.0 mg/kg/injection, schedule: Q01DX005 (ip), vehicle: other 122 % of control | dose: 400.0 mg/kg/injection, schedule: Q01DX005 (ip), vehicle: other 113 % of control

O=c1oc2ccc(Cl)cc2c(Nc2ccccc2)c1Cl
inactive: dose: 100.0 mg/kg/injection, schedule: Q01DX001 (ip), vehicle: saline with Tween-80 93 % of control | dose: 200.0 mg/kg/injection, schedule: Q01DX001 (ip), vehicle: saline with Tween-80 93 % of control | dose: 400.0 mg/kg/injection, schedule: Q01DX001 (ip), vehicle: saline with Tween-80 90 % of control

COc1ccc(C2OC(=O)c3cccnc32)cc1OC (stereo unspecified)
inactive: dose: 12.5 mg/kg/injection, schedule: Q01DX009 (ip), vehicle: other 90 % of control | dose: 50.0 mg/kg/injection, schedule: Q01DX009 (ip), vehicle: other 87 % of control | dose: 200.0 mg/kg/injection, schedule: Q01DX009 (ip), vehicle: other 88 % of control

CCCSP(SCCC)SCCC
inactive: dose: 50.0 mg/kg/injection, schedule: Q01DX001 (ip), vehicle: Klucel (hydroxypropylcellulose) (HPC) 107 % of control | dose: 100.0 mg/kg/injection, schedule: Q01DX001 (ip), vehicle: Klucel (hydroxypropylcellulose) (HPC) 96 % of control | dose: 200.0 mg/kg/injection, schedule: Q01DX001 (ip), vehicle: Klucel (hydroxypropylcellulose) (HPC) 101 % of control

CO[C@]12[C@@H](COC(=O)NCCO)C3=C(C(=O)C(C)=C(N)C3=O)N1C[C@@H]1[C@H]2N1C (stereo partly specified)
inactive: dose: 12.5 mg/kg/injection, schedule: Q01DX009 (ip), vehicle: saline 112 % of control | [1] 119 % of control | [5] 114 % of control | dose: 150.0 mg/kg/injection, schedule: Q01DX001 (ip), vehicle: saline 116 % of control | dose: 200.0 mg/kg/injection, schedule: Q01DX009 (ip), vehicle: saline 112 % of control

CCc1ccccc1NC(=O)/C=C/c1ccccc1
inactive: dose: 100.0 mg/kg/injection, schedule: Q04DX002 (ip), vehicle: saline with Tween-80 86 % of control | dose: 200.0 mg/kg/injection, schedule: Q04DX002 (ip), vehicle: saline with Tween-80 96 % of control | dose: 400.0 mg/kg/injection, schedule: Q04DX002 (ip), vehicle: saline with Tween-80 93 % of control

Nc1ccc2c(c1)C=CCS2
inactive: [2] 102 % of control | dose: 100.0 mg/kg/injection, schedule: Q04DX003 (ip), vehicle: saline with Tween-80 104 % of control | [3] 98 % of control | dose: 200.0 mg/kg/injection, schedule: Q04DX003 (ip), vehicle: saline with Tween-80 98 % of control | [4] 90 % of control | dose: 400.0 mg/kg/injection, schedule: Q04DX003 (ip), vehicle: saline with Tween-80 104 % of control

CN(C)CCCNc1cccc2c1C(=O)c1cccc(NCCCN(C)C)c1C2=O
inactive: dose: 8.0 mg/kg/injection, schedule: Q01DX009 (ip), vehicle: acid diluted with saline 102 % of control | dose: 16.0 mg/kg/injection, schedule: Q01DX009 (ip), vehicle: acid diluted with saline 102 % of control | dose: 32.0 mg/kg/injection, schedule: Q01DX009 (ip), vehicle: acid diluted with saline 106 % of control | dose: 64.0 mg/kg/injection, schedule: Q01DX009 (ip), vehicle: acid diluted with saline 100 % of control

C[P+]1(c2ccccc2)c2ccccc2Oc2ccccc21
inactive: [5] 102 % of control
